Measurements taken from the NIST ThermoML archive (doi:10.1016/j.fluid.2008.10.008).
Values joined by “and” are separate entries in the source; they are usually repeats but may differ in a detail not shown here. Identical values can stand only once. Numbers after ± are expanded uncertainties.

Test: activity coefficient (dimensionless); of the first substance listed, at infinite dilution; xn = mol fraction of the nth substance listed
Conditions: 101 kPa, Liquid, Chromatography, x1 = 0

## c1ccccc1 [benzene] + CCCC[n+]1ccc(C)cc1.Cc1ccc(S(=O)(=O)[O-])cc1
328.15 K
  activity coefficient: 4.01 ± 0.18
333.15 K
  activity coefficient: 3.92 and 4
338.15 K
  activity coefficient: 3.97 and 3.95
343.15 K
  activity coefficient: 3.94 and 3.97

## C=CCCCC [hex-1-ene] + CCCC[n+]1ccc(C)cc1.Cc1ccc(S(=O)(=O)[O-])cc1
328.15 K
  activity coefficient: 21.2 and 21.1
333.15 K
  activity coefficient: 20.7 and 20.1
338.15 K
  activity coefficient: 20.3 and 19.5
343.15 K
  activity coefficient: 20 and 20.1

## C#CCCCC [1-hexyne] + CCCC[n+]1ccc(C)cc1.Cc1ccc(S(=O)(=O)[O-])cc1
328.15 K
  activity coefficient: 4.25 and 4.19
333.15 K
  activity coefficient: 4.43 and 4.26
338.15 K
  activity coefficient: 4.37 and 4.61
343.15 K
  activity coefficient: 4.8 and 4.36

## C#CCCCCCC [1-octyne] + CCCC[n+]1ccc(C)cc1.Cc1ccc(S(=O)(=O)[O-])cc1
328.15 K
  activity coefficient: 8.01 and 8.11
333.15 K
  activity coefficient: 8.45 and 8.13
338.15 K
  activity coefficient: 8.27 and 8.18
343.15 K
  activity coefficient: 8.56 and 8.3

## CCCCCCC [heptane] + CCCC[n+]1ccc(C)cc1.Cc1ccc(S(=O)(=O)[O-])cc1
328.15 K
  activity coefficient: 53 and 55
333.15 K
  activity coefficient: 51.8 and 51
338.15 K
  activity coefficient: 50.6 and 50.4
343.15 K
  activity coefficient: 49.3 and 49.5

## CCO [ethanol] + CCCC[n+]1ccc(C)cc1.Cc1ccc(S(=O)(=O)[O-])cc1
328.15 K
  activity coefficient: 0.905 and 0.893
333.15 K
  activity coefficient: 0.895 and 0.881
338.15 K
  activity coefficient: 0.88 and 0.87
343.15 K
  activity coefficient: 0.871 and 0.863

## C1CCCCC1 [cyclohexane] + CCCC[n+]1ccc(C)cc1.Cc1ccc(S(=O)(=O)[O-])cc1
328.15 K
  activity coefficient: 18.6 and 20.6
333.15 K
  activity coefficient: 18 and 18.1
338.15 K
  activity coefficient: 17.5 ± 0.8
343.15 K
  activity coefficient: 16.9 and 17

## C#CCCCCC [1-heptyne] + CCCC[n+]1ccc(C)cc1.Cc1ccc(S(=O)(=O)[O-])cc1
328.15 K
  activity coefficient: 5.76 and 5.88
333.15 K
  activity coefficient: 6.03 and 5.9
338.15 K
  activity coefficient: 6.01 and 5.98
343.15 K
  activity coefficient: 6.14 and 6

## CCCCCCCC [octane] + CCCC[n+]1ccc(C)cc1.Cc1ccc(S(=O)(=O)[O-])cc1
328.15 K
  activity coefficient: 71.6 and 75.8
333.15 K
  activity coefficient: 71.3 and 70.6
338.15 K
  activity coefficient: 67.8 and 68.4
343.15 K
  activity coefficient: 68.7 and 68.9

## C=CCCC [1-pentene] + CCCC[n+]1ccc(C)cc1.Cc1ccc(S(=O)(=O)[O-])cc1
328.15 K
  activity coefficient: 16.8 and 15.3
333.15 K
  activity coefficient: 16.1 and 14.8
338.15 K
  activity coefficient: 15.3 and 15.5
343.15 K
  activity coefficient: 15.7 and 14.2

## C1CCCC1 [cyclopentane] + CCCC[n+]1ccc(C)cc1.Cc1ccc(S(=O)(=O)[O-])cc1
328.15 K
  activity coefficient: 13.6 and 12.5
333.15 K
  activity coefficient: 12.4 and 12.8
338.15 K
  activity coefficient: 11.7 and 12
343.15 K
  activity coefficient: 11.9 and 11.7

## C=CCCCCCC [oct-1-ene] + CCCC[n+]1ccc(C)cc1.Cc1ccc(S(=O)(=O)[O-])cc1
328.15 K
  activity coefficient: 39.7 and 40.6
333.15 K
  activity coefficient: 39.7 and 39.2
338.15 K
  activity coefficient: 38.7 and 38.9
343.15 K
  activity coefficient: 37.8 and 38

## CCCCCC [hexane] + CCCC[n+]1ccc(C)cc1.Cc1ccc(S(=O)(=O)[O-])cc1
328.15 K
  activity coefficient: 37.3 and 38.9
333.15 K
  activity coefficient: 37.2 ± 1.7
338.15 K
  activity coefficient: 36 ± 1.7
343.15 K
  activity coefficient: 36.9 and 37.1

## C1CCCCCCC1 [cyclooctane] + CCCC[n+]1ccc(C)cc1.Cc1ccc(S(=O)(=O)[O-])cc1
328.15 K
  activity coefficient: 26.2 and 28.4
333.15 K
  activity coefficient: 25.2 and 25
338.15 K
  activity coefficient: 23.7 and 24.6
343.15 K
  activity coefficient: 23.6 and 24.5

## C=CCCCCC [1-heptene] + CCCC[n+]1ccc(C)cc1.Cc1ccc(S(=O)(=O)[O-])cc1
328.15 K
  activity coefficient: 28.7 and 29.2
333.15 K
  activity coefficient: 29.5 and 28.2
338.15 K
  activity coefficient: 27.2 and 27.9
343.15 K
  activity coefficient: 28 and 27.5

## CO [methanol] + CCCC[n+]1ccc(C)cc1.Cc1ccc(S(=O)(=O)[O-])cc1
328.15 K
  activity coefficient: 0.555 and 0.542
333.15 K
  activity coefficient: 0.545 and 0.542
338.15 K
  activity coefficient: 0.541 and 0.536
343.15 K
  activity coefficient: 0.548 and 0.527

## CCCCC [pentane] + CCCC[n+]1ccc(C)cc1.Cc1ccc(S(=O)(=O)[O-])cc1
328.15 K
  activity coefficient: 27.6 and 28.7
333.15 K
  activity coefficient: 27.5 and 27.8
338.15 K
  activity coefficient: 27.7 and 27.8
343.15 K
  activity coefficient: 27.3 and 27.4

## C#CCCC [1-pentyne] + CCCC[n+]1ccc(C)cc1.Cc1ccc(S(=O)(=O)[O-])cc1
328.15 K
  activity coefficient: 3.05 and 3.09
333.15 K
  activity coefficient: 3.37 and 3.06
338.15 K
  activity coefficient: 3.36 and 3.2
343.15 K
  activity coefficient: 3.38 and 3.41

## C1CCCCCC1 [cycloheptane] + CCCC[n+]1ccc(C)cc1.Cc1ccc(S(=O)(=O)[O-])cc1
328.15 K
  activity coefficient: 21.2 and 23.4
333.15 K
  activity coefficient: 20.8 ± 1
338.15 K
  activity coefficient: 20 ± 0.9
343.15 K
  activity coefficient: 19.8 and 19.9
